Source: publication PMC7232442, “Biofilm Eradication by Symmetrical Selenoesters for Food-Borne Pathogens” (Microorganisms, 2020)
In brackets after ≈: the same amount, converted by molar mass.

What was measured:
[1] = test system: S. Typhimurium SE03 ΔacrA; assay: Real-time ethidium bromide accumulation assay; format: cell-based, Salmonella enterica serovar Typhimurium; conditions: S. Typhimurium SE03 ΔacrA; ½ MIC; minute 60
Protocol: (§1) The impact of compounds on EB accumulation was determined by the automated EB method using a CLARIOstar Plus plate reader (BMG Labtech, UK). Firstly, the bacterial strain was incubated until it reached an optical density (OD) of 0.6 at 600 nm. The culture was washed with phosphate buffered saline (PBS; pH 7.4) and centrifuged at 13,000× g for 3 min, the cell pellet was re-suspended in PBS. The compounds were added at ½ MIC concentration to PBS containing a non-toxic concentration of EB (1 µg/mL). Then, 50 μL of the EB solution containing the compound were transferred into 96-well black microtiter plate (Greiner Bio-One Hungary Kft, Hungary), and 50 μL of bacterial suspension (OD600 0.6) were added to the each well. Then, the plates were placed into the CLARIOstar plate reader, and the fluorescence was monitored at excitation and emission wavelengths of 530 nm and 600 nm every minute for one hour on a real-time basis. From the real-time data, the activity of the compounds, namely the relative fluorescence index (RFI) of the last time point (minute 60) of the EB accumulation assay, was calculated according to the following formula:RFI = (RFtreated − RFuntreated)/RFuntreated(2) where RFtreated is the relative fluorescence (RF) at the last time point of EB retention curve in the presence of an inhibitor, and RFuntreated is the RF at the last time point of the EB retention curve of the untreated control having the solvent control (DMSO).

[2] = test system: S. Typhimurium SE39 ΔtolC; assay: Real-time ethidium bromide accumulation assay; format: cell-based, Salmonella enterica serovar Typhimurium; conditions: S. Typhimurium SE39 ΔtolC; ½ MIC; minute 60
Protocol: as §1

[3] = test system: C. violaceum 026 sensor strain with AHL producer E. cloacae 31298 (violacein production); assay: Quorum sensing (QS) inhibition, parallel inoculation disk diffusion; format: cell-based, Chromobacterium violaceum; conditions: disc with 10 μL compound, starting concentration ½ MIC; 24–48 h
Protocol: The QS inhibitory effect of selenocompounds was examined on the AHL producer E. cloacae strain and C. violaceum sensor bacterial strain. These strains were inoculated in parallel. The QS inhibition was monitored by agar diffusion method on LB* agar plate as described previously. Filter paper discs (7.0 mm in diameter) were placed between the parallel inoculated strains and impregnated with 10 μL compounds. Starting concentration of the compounds was ½ MIC. The agar plates were incubated at room temperature (20 °C) for 24–48 h and the inhibition of violacein production was measured.

S. aureus ATCC 25923 = assay: Real-time ethidium bromide accumulation assay; format: cell-based, Staphylococcus aureus; set-up: key to Relative Fluorescence Index (RFI): RFI = (RFtreated − RFuntreated)/RFuntreated at minute 60; conditions: S. aureus ATCC 25923; ½ MIC; minute 60
Protocol: as §1

[4] = test system: MRC-5 human embryonal lung fibroblast cells; assay: Cytotoxicity assay (MTT); format: cell-based; conditions: Homo sapiens, MRC5, 24 h, MRC-5 cells
Protocol: The adherent MRC-5 human embryonal lung fibroblast cells were cultured in 96-well flat-bottomed microtiter plates, using EMEM supplemented with 10% heat-inactivated fetal bovine serum. The density of the cells was adjusted to 1 × 10^4 cells in 100 μL per well, the cells were seeded overnight at 37 °C, 5% CO2, then the medium was removed from the plates containing the cells, and the dilutions of selenocompounds previously made in a separate plate were added to the cells in 200 μL.
The culture plates were incubated at 37 °C for 24 h; at the end of the incubation period, 20 μL of MTT (thiazolyl blue tetrazolium bromide, Sigma) solution (from a stock solution of 5 mg/mL) was added to each well. After incubation at 37 °C for 4 h, 100 μL of sodium dodecyl sulfate (SDS; Sigma) solution (10% in 0.01 M HCI) was added to each well and the plates were further incubated at 37 °C overnight. Cell growth was determined by measuring the optical density (OD) at 540/630 nm with Multiscan EX ELISA reader (Thermo Labsystems, Cheshire, WA, USA). Inhibition of the cell growth was determined according to the formula below:IC50 = 100 − [(ODsample − ODmedium control)/(ODcell control − ODmedium control)] × 100(1)
Results are expressed in terms of IC50, defined as the inhibitory dose that reduces the growth of the cells exposed to the tested compounds by 50%.

S. aureus MRSA 272123 [5] = assay: Real-time ethidium bromide accumulation assay; format: cell-based, Staphylococcus aureus; conditions: S. aureus MRSA 272123; ½ MIC; minute 60
Protocol: as §1

[6] = test system: S. Typhimurium SE39 ΔtolC; assay: MIC determination by microdilution method; format: cell-based, Salmonella enterica serovar Typhimurium; conditions: Salmonella enterica
Protocol: (§2) The minimum inhibitory concentrations (MICs) of compounds were determined according to the Clinical and Laboratory Standard Institute guidelines (CLSI). MIC values of the compounds were determined by visual inspection. The solvent was also assayed to ensure there was no antibacterial effect and the concentration (1 v/v%) applied in the assays had no antibacterial activity. DMSO was used at subinhibitory concentration (1 v/v%) in the assays.

[7] = test system: S. Typhimurium SE01 Wild-Type; assay: MIC determination by microdilution method; format: cell-based, Salmonella enterica serovar Typhimurium; conditions: Salmonella enterica; S. Typhimurium SE01 wild-type; read-out: MIC
Protocol: as §2

[8] = test system: S. Typhimurium SE02 ΔacrB; assay: Real-time ethidium bromide accumulation assay; format: cell-based, Salmonella enterica serovar Typhimurium; conditions: S. Typhimurium SE02 ΔacrB; ½ MIC; minute 60
Protocol: as §1

[9] = test system: S. Typhimurium SE01 Wild-Type; assay: Real-time ethidium bromide accumulation assay; format: cell-based, Salmonella enterica serovar Typhimurium; conditions: ½ MIC, minute 60
Protocol: as §1

S. aureus MRSA 272123 [10] = assay: MIC determination by microdilution method; format: cell-based; conditions: Staphylococcus aureus; S. aureus MRSA 272123; read-out: MIC
Protocol: as §2

[11] = test system: Staphylococcus aureus ATCC 25923; assay: MIC determination by microdilution method; format: cell-based; conditions: S. aureus ATCC 25923
Protocol: as §2

[12] = test system: reference S. aureus strain (ATCC 25923); assay: Biofilm formation using crystal violet; format: cell-based, Staphylococcus aureus; conditions: reference S. aureus; ½ MIC; 48 h
Protocol: (§3) The anti-biofilm effect of the tested compounds against S. aureus strains and wild-type S. Typhimurium SE01 was measured using crystal violet (CV; 0.1% (v/v)). This dye is used to detect the total biofilm biomass formed. Overnight cultures were diluted to OD of 0.1 at 600 nm in TSB medium. Then, the bacterial cultures were added to 96-well microtiter plates and the compounds were added at ½ MIC concentration. The final volume was 200 μL in each well. The microtiter plates were incubated at 30 °C for 48 h with gentle agitation (100 rpm). After the incubation period, TSB medium was discarded, and the plates were washed with tap water to remove unattached cells. Then 200 μL crystal violet was added to the wells and incubated for 15 min at room temperature. Then, CV was removed from the wells and the plates were washed again with tap water, and 200 μL of 70% ethanol was added to the wells. Finally, the biofilm formation was determined by measuring the OD at 600 nm using Multiscan EX ELISA plate reader (Thermo Labsystems, Cheshire, WA, USA). The anti-biofilm effect of compounds was expressed in the percentage (%) of decrease in biofilm formation.

S. aureus MRSA = assay: Biofilm formation using crystal violet; format: cell-based, Staphylococcus aureus
Protocol: as §3

Compound: CC(=O)C[Se]C(=O)c1cccc(C(=O)[Se]CC(C)=O)c1 [Se-K2]
- Relative Fluorescence Index (RFI) [1]: 0.20
- Relative Fluorescence Index (RFI) [2]: 0.26
- QS zone of inhibition [3]: 40 mm
- Relative Fluorescence Index (RFI) (S. aureus ATCC 25923): 0.11
- IC50 [4]: 1340 nM
- Relative Fluorescence Index (RFI) (S. aureus MRSA 272123 [5]): −0.07
- MIC [6]: 100 µM (≈ 40.4 µg/mL)
- MIC [7]: 50 µM (≈ 20.2 µg/mL)
- Relative Fluorescence Index (RFI) [8]: 0.13
- Relative Fluorescence Index (RFI) [9]: −0.04
- MIC (S. aureus MRSA 272123 [10]): 1.56 µM (≈ 0.631 µg/mL)
- MIC [11]: 0.39 µM (≈ 0.158 µg/mL)
- MIC ([11]; Staphylococcus aureus, ATCC25923): 0.39 µM (≈ 0.158 µg/mL)
- Biofilm inhibition [12]: 30.3%
- Anti-biofilm effect (in words) (S. aureus MRSA): promoted the biofilm formation
